The results in this text go back to paper PMC8652888, “Angiogenesis, Anti-Tumor, and Anti-Metastatic Activity of Novel α-Substituted Hetero-Aromatic Chalcone Hybrids as Inhibitors of Microtubule Polymerization” (Frontiers in Chemistry, 2021).

As a reminder, the IC50 is the concentration that gives 50% inhibition.

For one data set, the system named is MCF-7. Nature of the data set: Antiproliferative activity, SRB assay.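 Also: proliferation of MCF7 cells quantified by sulforhodamine B staining, with optical density read at 560 nm.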 Type of data set: cell-based, human.
In data set [1] the test system is MCF-7, U937, HepG2 and MGC-803 cells. Nature of the data set: Antiproliferative activity, cancer cell panel (text summaries). Particulars: U937, MCF7, HepG2; read-out: IC50 against three cancer cells. The format is cell-based, human. The method, then: The synthesized compounds were first evaluated for their cytotoxic effect on MCF-7 (human breast adenocarcinoma), U937 (histiocytic lymphoma cancer), HepG2 (human liver cancer) cells, and MGC-803 (human gastric cancer) using the SRB and CCK-8 assay. As reference compounds CA-4 and colchicine were included.
The primary tumor cells were purchased from a professional biomedical company. First, the primary tumor cells were incubated in a cell culture incubator at 37°C and 5% CO2. After the cell fusion reached 85%–95%, subculture was performed, and the tumor cells obtained at this time were used for subsequent related experiments. The CCK-8 method was used to inhibit the proliferation of U937 tumor cells, and the SRB method was used to inhibit the proliferation of MCF7 and HepG2 tumor cells.
Cells were distributed into 96-well plates with a density of 3 × 10^3–4 × 10^3 cells per well and incubated for 24 h in a 5% CO2 incubator at 37°C, followed by treatment with study compounds at different concentrations at 37°C for 72 h. One hundred microliters of 10% (w/v) trichloroacetic acid was added to each well, fixed at 4°C for 30 min, and dried at 65°C. Then 100 μl of 0.4% SRB was added to each well and stained on a shaker for 20 min at room temperature. The excess dye solution was washed with newly prepared 1% glacial acetic acid and dried at 65°C. One hundred fifty microliters of 10 mM unbuffered Trisbase was added to each well of the plate and shaken for 5 min to dissolve the dye. The microplate reader measured the optical density (OD) at a wavelength of 560 nm.
The cells in the logarithmic growth phase were seeded in a 96-well plate at 8,000/well, and the drug-containing medium and cell suspension were added to the well. Three wells were added with the blank medium as the blank group. The 96-well plate was incubated for 72 h in a 37°C, 5% CO2 incubator. The 10 μl of CCK-8 dye solution was added to each well, and the incubation continued for 3–4 h.

In a further data set the test system is MCF-7 cells. Nature of the data set: Apoptosis analysis, Annexin-V FITC/PI flow cytometry. The format is cell-based, human. The note with it: for Late-apoptosis (Q2 of Annexin/PI plot), single runs / Pro-apoptosis (Q3 of Annexin/PI plot), single runs / percentage of apoptotic cells (early and late apoptosis): 48 h. Here is the method:
To test whether compound 7m induced reduction in cell viability was responsible for the induction of apoptosis, MCF-7 cells were stained with Annexin-V FITC/PI staining, and the number of apoptotic cells was estimated by flow cytometry.
The MCF-7 cells in 12-well plates (8 × 10^4 cells/well) were cultured for 24 h at 37°C in 5% CO2 and then incubated with 7m at concentrations of 100, 200, 400 nM, or vehicle to induce cell apoptosis for 48 h. Then the cells floating in the supernatant were combined with the adherent fraction and washed with PBS three times. The cells were incubated with Annexin V-FITC and PI for 15 min at 37°C in the dark. Apoptosis was quantified using a flow cytometer (Becton, Dickinson and Company, USA).

The test system of data set [2] is intersegmental vessel (ISV) development, Tg (flk: EGFP) embryos. Nature of the data set: Anti-angiogenic effect on zebrafish embryos. The format is in vivo. From the text:
Zebrafish embryo is a powerful model to study human diseases, and the transgenic zebrafish labeled with green fluorescent protein (GFP) in endothelial cells are always used to analyze angiogenesis activity in vivo ([Rocke et al., 2009]). Accordingly, we treated the transgenic Tg (flk: EGFP) embryos with different doses of 7m (0.5, 1, 2.5, 5 μΜ), and 30 hpf zebrafish was imaged by fluorescent microscopy to examine the effect on intersegmental vessel (ISV) development. […] When the concentration of 7m was elevated to 2.5 μΜ, the […] effect was more pronounced as evidenced by the 3.5- to 4-fold reduction in the number of SIVs.
The transgenic zebrafish Tg (flk: EGFP) embryos were paired normally and collected into a six-well plate (n = 30/well), then 1 ml of aquaculture water (0.2 g/L distilled water instant sea salt) was added and were raised at 28.5°C. When the zebrafish embryos developed to 12 hpf, the indicated concentrations of 7m were added, and 30 embryos were selected for each concentration gradient and incubated at 28.5°C to 30 hpf. At 30 hpf, the zebrafish embryos were imaged and photographed under a fluorescence microscope to observe the growth of blood vessels in the body, and the number of intersegmental blood vessels (ISV) was recorded.

Several values for one entry are separate records, joined by “and”; a condition that tells them apart may be missing. Equal entries are not always repeated. Where two headings read alike, the source gives them in different places.

“3-(benzofuran-6-yl)-2-methyl-1-(3,4,5-trimethoxyphenyl)prop-2-en-1-one [Compound 7m]”: the IC50 in the data set with MCF-7 (72 h, triplicate, mean ± SD, read-out: IC50 ± SD, MCF-7) is 183 ± 32 nM; in the data set on MCF-7 (Table 3, triplicate, read-out: IC50 ± SD, MCF7), 183 ± 32 nM; in the data set with MCF-7 (three single determinations, read-out: MCF-7 (raw data of table 3, IC50)) it was 146 nM and 223 nM and 180 nM; in data set [1], 70 to 183 nM. Besides, the “Late-apoptosis AVERAGE” value in the data set with MCF-7 cells (100nM) is recorded as 37.3; in the data set with MCF-7 cells (200nM) it was 48.8; in the data set with MCF-7 cells (400nM), 52.3. Moreover, the “Pro-apoptosis AVERAGE” value in the data set on MCF-7 cells (100nM) is given as 6.425; in the data set on MCF-7 cells (200nM), 3.01; with MCF-7 cells (400nM), 4.22. Besides, the “Late-apoptosis (Q2 of Annexin/PI plot), single runs” value with MCF-7 cells (100nM) is 36 and 38.6; in the data set on MCF-7 cells (200nM), 49.3 and 48.3; in the data set on MCF-7 cells (400nM), 52.8 and 51.8. Also, the “Pro-apoptosis (Q3 of Annexin/PI plot), single runs” value with MCF-7 cells (100nM) was 7.59 and 5.26; with MCF-7 cells (200nM), 3.29 and 2.73; with MCF-7 cells (400nM) it was 4.66 and 3.78. Also, the “percentage of apoptotic cells (early and late apoptosis)” value came out at 44% in the data set on MCF-7 cells (100nM), 53% with MCF-7 cells (200nM) and 57% in the data set with MCF-7 cells (400nM). Moreover, in data set [2] (0.5 and 1 μΜ, 30 hpf), the “number and length of SIVs vs vehicle control” value is recorded as “slightly reduced”. The ISVs formations result in data set [2] (doses ≥5 μM) is given as “seriously impaired”. For the same substance, the “developmental toxicity in embryos” value in data set [2] (doses ≥5 μM) was “developmental defects were observed”.
